Data on 16 molecules can be found in patent US12552785B2, “Pyrazolo[1,5-α]pyridine derivative, preparation method therefor, and composition and use thereof” (SHENZHEN ZHONGGE BIOLOGICAL TECHNOLOGY CO., LTD., priority 2020, dated 2026).

In one test the target is RET (Homo sapiens, UniProt P07949). Description: HTRF method for testing the inhibitory activity of compounds against RET. The test is classed as biochemical. The conditions noted are these: IC50 by nonlinear regression, read-out: RET kinase activity. The protocol:
(a) In Vitro Screening Experiment-HTRF Method for Testing the Inhibitory Activity of Compounds Against RET Experimental Procedure: 1. […] 2. The test compound (5 mM stock solution) was diluted 5 folds to 1 mM with 100% dimethyl sulfoxide; the compound was diluted into 10 concentrations at an equal ratio of 1:3 in a 384-well dilution plate. 3. 0.2 μL of the serially diluted compound was added to a 384-well plate using an Echo 550 pipetting system, 2 replicate wells for each concentration, and the final concentration of dimethyl sulfoxide was 0.5% (v/v). […] 6. […] The reaction solution was centrifuged at 1000 g for 30 s, and then sealed, and incubated at room temperature for 30 min. 8. […] 10. […] 11. […] IC50 was calculated with software GraphPad 6.0 by fitting inhibition values and logarithms of compound concentrations to a nonlinear regression (dose response−variable slope).

Another test deals with VEGFR2 (Homo sapiens, UniProt P35968). The experiment in a line: HTRF method for testing the inhibitory activity of compounds against VEGFR2. The conditions noted are these: IC50 by nonlinear regression, read-out: VEGFR2 kinase activity. The test is classed as biochemical. The protocol: (b) In Vitro Screening Experiment—HTRF Method for Testing the Inhibitory Activity of Compounds Against VEGFR2 Experimental Procedure: 1. […] The test compound (5 mM stock solution) was diluted 5 folds to 1 mM with 100% dimethyl sulfoxide; the compound was diluted into 10 concentrations at an equal ratio of 1:3 in a 384-well dilution plate. 3. […] 6. […] The reaction solution was centrifuged at 1000 g for 30 s, and then sealed, and incubated at room temperature for 40 min. 8. […] 10. […] 11. […] 12. IC50 was calculated with software GraphPad 6.0 by fitting inhibition values and logarithms of compound concentrations to a nonlinear regression (dose response−variable slope).

A further test concerns the target T1, Ba/F3-KIF5B-RET cell (Homo sapiens, UniProt P07949).
T1 construct: fused on or other part: P33176 (Kinesin-1 heavy chain)
The experiment in a line: CellTiter-Glo luminescence assay for inhibitory activity against Ba/F3-KIF5B-RET cell. It counts as cell-based. The conditions noted are these: Ba/F3-KIF5B-RET cells, 72 h. An excerpt:
(c) In Vitro Screening Experiment—CellTiter-Glo Luminescence Assay for Testing the Inhibitory Activity of Compounds Against Ba/F3-KIF5B-RET Cell Experimental Procedure: 1. The mammalian cell expression vector containing human KIF5B-RET cDNA was introduced into Ba/F3 cells using the Neon® transfection system method, and the surviving clones screened by puromycin were subjected to cell growth inhibitory function experiments and Western blotting to verify cell lines with stable and high expression of RET. 2. […] 3. The test compound (5 mM stock) was diluted 2.5 folds to 2 mM with 100% dimethyl sulfoxide; and the compound was diluted into 10 concentrations at an equal ratio of 1:3 in a 384-well dilution plate. 4. […] 6. […] 7. By fitting the data with XLFit 5.0 based on the parameters formula, the IC50 value was calculated as: Y=Bottom+(Top−Bottom)/(1+10^((Log IC50−X)*HillSlope)).

VEGFR2, sequence (P35968 20-1356, species assumed): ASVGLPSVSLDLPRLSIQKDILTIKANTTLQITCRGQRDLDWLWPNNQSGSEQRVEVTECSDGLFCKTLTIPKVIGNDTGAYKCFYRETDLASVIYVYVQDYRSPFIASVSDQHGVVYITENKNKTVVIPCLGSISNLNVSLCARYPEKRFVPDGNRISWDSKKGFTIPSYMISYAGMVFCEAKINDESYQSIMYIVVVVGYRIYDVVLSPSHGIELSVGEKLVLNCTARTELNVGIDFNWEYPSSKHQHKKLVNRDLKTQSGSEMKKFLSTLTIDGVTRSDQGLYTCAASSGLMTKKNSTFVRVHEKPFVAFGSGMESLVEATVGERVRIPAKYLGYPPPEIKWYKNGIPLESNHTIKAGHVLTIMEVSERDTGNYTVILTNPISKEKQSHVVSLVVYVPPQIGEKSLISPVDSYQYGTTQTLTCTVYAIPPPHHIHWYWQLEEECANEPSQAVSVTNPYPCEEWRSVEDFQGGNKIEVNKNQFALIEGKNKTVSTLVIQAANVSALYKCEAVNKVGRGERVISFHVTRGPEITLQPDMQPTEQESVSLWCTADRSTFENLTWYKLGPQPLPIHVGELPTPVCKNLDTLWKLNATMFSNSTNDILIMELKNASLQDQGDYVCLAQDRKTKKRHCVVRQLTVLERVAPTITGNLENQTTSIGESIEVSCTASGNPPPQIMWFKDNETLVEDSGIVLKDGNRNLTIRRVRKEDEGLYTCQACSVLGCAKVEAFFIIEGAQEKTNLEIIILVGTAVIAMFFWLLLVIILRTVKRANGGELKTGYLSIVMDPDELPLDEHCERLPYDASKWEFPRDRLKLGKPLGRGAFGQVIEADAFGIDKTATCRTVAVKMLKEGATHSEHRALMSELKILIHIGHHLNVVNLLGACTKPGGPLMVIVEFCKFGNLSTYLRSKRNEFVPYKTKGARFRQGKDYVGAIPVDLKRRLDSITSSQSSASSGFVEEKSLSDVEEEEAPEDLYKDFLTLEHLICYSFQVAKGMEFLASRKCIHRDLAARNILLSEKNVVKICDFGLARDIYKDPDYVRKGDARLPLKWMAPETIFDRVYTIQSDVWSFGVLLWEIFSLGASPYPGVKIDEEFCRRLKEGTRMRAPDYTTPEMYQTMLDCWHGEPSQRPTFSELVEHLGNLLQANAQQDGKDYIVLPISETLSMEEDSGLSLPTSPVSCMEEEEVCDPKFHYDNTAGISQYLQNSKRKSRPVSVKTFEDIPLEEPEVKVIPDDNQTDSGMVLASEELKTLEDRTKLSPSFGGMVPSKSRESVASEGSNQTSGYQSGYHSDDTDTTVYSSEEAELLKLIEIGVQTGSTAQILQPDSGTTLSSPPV
RET, sequence (P07949 29-1114): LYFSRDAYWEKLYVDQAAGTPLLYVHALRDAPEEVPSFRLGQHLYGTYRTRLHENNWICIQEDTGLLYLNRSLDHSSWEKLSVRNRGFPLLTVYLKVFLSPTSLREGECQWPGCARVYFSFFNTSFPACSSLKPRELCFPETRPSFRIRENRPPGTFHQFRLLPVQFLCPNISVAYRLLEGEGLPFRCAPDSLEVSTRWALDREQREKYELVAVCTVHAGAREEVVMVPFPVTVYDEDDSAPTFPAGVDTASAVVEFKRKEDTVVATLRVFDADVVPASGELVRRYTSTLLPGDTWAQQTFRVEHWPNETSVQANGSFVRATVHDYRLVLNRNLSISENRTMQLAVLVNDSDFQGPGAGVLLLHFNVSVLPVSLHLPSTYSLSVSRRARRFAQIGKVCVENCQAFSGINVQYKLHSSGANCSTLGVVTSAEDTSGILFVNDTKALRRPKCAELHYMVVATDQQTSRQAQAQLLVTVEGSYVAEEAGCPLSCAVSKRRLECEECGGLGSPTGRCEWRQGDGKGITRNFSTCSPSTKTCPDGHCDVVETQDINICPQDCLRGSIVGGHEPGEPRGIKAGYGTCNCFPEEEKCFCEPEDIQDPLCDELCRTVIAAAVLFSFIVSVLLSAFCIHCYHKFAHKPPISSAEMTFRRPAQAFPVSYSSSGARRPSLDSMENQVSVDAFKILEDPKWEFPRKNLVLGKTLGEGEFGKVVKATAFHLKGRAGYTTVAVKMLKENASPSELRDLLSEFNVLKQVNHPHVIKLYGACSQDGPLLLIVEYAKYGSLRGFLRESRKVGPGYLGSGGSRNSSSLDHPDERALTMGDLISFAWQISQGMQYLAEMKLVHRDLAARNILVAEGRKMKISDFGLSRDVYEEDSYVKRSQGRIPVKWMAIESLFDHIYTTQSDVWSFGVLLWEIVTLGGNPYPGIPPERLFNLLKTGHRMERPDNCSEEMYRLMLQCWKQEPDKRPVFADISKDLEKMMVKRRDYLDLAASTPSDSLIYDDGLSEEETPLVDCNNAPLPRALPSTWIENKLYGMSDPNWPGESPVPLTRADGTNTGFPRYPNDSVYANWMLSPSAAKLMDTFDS
T1 sequence (P07949 whole entry, change not shown, the tested form may be a part): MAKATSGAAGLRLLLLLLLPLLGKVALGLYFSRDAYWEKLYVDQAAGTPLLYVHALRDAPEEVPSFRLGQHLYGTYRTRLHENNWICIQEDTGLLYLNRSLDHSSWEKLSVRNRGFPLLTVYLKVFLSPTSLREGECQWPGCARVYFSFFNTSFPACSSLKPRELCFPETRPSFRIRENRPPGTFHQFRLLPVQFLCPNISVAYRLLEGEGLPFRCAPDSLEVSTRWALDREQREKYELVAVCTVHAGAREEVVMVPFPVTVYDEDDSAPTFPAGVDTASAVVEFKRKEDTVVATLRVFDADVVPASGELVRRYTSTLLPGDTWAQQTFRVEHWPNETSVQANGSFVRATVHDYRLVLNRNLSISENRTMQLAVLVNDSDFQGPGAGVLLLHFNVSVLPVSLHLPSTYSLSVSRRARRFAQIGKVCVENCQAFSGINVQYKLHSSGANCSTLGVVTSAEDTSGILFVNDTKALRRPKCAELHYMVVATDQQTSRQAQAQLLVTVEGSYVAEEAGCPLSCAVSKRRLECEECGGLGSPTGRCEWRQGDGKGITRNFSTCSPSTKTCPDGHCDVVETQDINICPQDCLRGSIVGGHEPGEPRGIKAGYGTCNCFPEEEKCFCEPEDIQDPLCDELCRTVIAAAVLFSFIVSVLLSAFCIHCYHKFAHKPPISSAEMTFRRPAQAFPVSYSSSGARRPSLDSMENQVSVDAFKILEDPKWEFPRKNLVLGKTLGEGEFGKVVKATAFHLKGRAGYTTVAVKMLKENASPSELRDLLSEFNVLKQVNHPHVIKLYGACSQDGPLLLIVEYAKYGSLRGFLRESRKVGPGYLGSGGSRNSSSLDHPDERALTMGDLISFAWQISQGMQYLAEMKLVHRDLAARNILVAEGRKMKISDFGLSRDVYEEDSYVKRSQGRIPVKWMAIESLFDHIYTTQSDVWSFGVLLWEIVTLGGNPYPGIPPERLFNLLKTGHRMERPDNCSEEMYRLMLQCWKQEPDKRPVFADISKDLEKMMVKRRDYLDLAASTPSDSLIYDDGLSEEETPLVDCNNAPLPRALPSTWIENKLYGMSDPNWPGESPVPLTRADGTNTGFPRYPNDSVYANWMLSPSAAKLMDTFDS

For the molecule `C[C@@H](c1ccc(-n2cc(F)cn2)nc1)N(C)c1ccc(-c2cc(OCC(F)(F)F)cn3ncc(C#N)c23)cn1` [Compound 35, (S)-4-(6-((1-(6-(4-fluoro-1H-pyrazol-1-yl)pyridin-3-yl)ethyl)(methyl)amino)pyridine-3-yl)-6-(2,2,2-trifluoroethoxy)pyrazolo[1,5-a]pyridine-3-carbonitrile], the IC50 came to 6.94 nM on RET and 819 nM on VEGFR2. The molecule further displayed a GI50 on Ba/F3-KIF5B-RET cell of 396 nM.

For `CC(O)COc1cc(-c2ccc(N(C)[C@@H](C)c3ccc(-n4cc(F)cn4)nc3)nc2)c2c(C#N)cnn2c1` (stereo partly drawn) [Compound 36, (S)-4-(6-((1-(6-(4-fluoro-1H-pyrazol-1-yl)pyridin-3-yl)ethyl)(methyl)amino)pyridine-3-yl)-6-(2-hydroxypropoxy)pyrazolo[1,5-a]pyridine-3-carbonitrile], the figures for the IC50 at RET and on VEGFR2 were 2.76 nM and 47 nM, respectively. The molecule also had a concentration for 50% growth inhibition (GI50) on Ba/F3-KIF5B-RET cell of 19.9 nM.

`CCn1cc(-c2cc(-c3ccc(N(C)[C@@H](C)c4ccc(-n5cc(F)cn5)nc4)nc3)c3c(C#N)cnn3c2)cn1` [Compound 38, (S)-6-(1-ethyl-1H-pyrazol-4-yl)-4-(6-((1-(6-(4-fluoro-1H-pyrazol-1-yl)pyridine-3-yl)ethyl)(methyl)amino)pyridin-3-yl)pyrazolo[1,5-a]pyridine-3-carbonitrile]: the figures for the IC50 at RET and on VEGFR2 were 0.56 nM and 7.39 nM, respectively. This molecule also returned a GI50 on Ba/F3-KIF5B-RET cell of 5.14 nM.

For the molecule `CCCOc1cc(-c2ccc(N(C)[C@@H](C)c3ccc(-n4cc(F)cn4)nc3)nc2)c2c(C#N)cnn2c1` [Compound 39, (S)-4-(6-((1-(6-(4-fluoro-1H-pyrazol-1-yl)pyridin-3-yl)ethyl)(methyl)amino)pyridine-3-yl)-6-propoxypyrazolo[1,5-a]pyridine-3-carbonitrile], the IC50 is 1.93 nM on RET and above 5000 nM on VEGFR2. Besides, at Ba/F3-KIF5B-RET cell, the GI50 worked out at 182 nM.

With `COc1ccc([C@H](C)N(C)c2ccc(-c3cc(OCC(C)(C)O)cn4ncc(C#N)c34)cn2)cn1` [Compound 43, (S)-6-(2-hydroxy-2-methylpropoxy)-4-(6-((1-(6-methoxypyridin-3-yl)ethyl)(methyl)amino)pyridin-3-yl)pyrazolo[1,5-a]pyridine-3-carbonitrile], the figures for the IC50 at RET and on VEGFR2 were 2.05 nM and 245 nM, respectively. In addition, the GI50 at Ba/F3-KIF5B-RET cell amounted to 35 nM.

For `CC[C@@H](c1ccc(-n2cc(F)cn2)nc1)N(C)c1ccc(-c2cc(OCC(C)(C)O)cn3ncc(C#N)c23)cn1` [Compound 44, (S)-4-(6-((1-(6-(4-fluoro-1H-pyrazolyl)pyridin-3-yl)propyl)(methyl)amino)pyridin-3-yl)-6-(2-hydroxy-2-methylpropoxy)pyrazo[1,5-a]pyridine-3-carbonitrile], the figures for the IC50 on RET and at VEGFR2 were 0.26 nM and 18 nM, respectively. Besides, the GI50 on Ba/F3-KIF5B-RET cell was 18.6 nM.

In the case of `C[C@@H](c1ccc(-n2cc(F)cn2)nc1)N(C)c1ccc(-c2cc(OCC3(O)CC3)cn3ncc(C#N)c23)cn1` [Compound 46, (S)-4-(6-((1-(6-(4-fluoro-1H-pyrazolyl)pyridin-3-yl)ethyl)(methyl)amino)pyridin-3-yl)-6-((1-hydroxycyclopropyl)methoxy)pyrazolo[1,5-a]pyridine-3-carbonitrile], the IC50 at RET is 0.73 nM; on VEGFR2 it was 80.5 nM. In addition, it took 13.6 nM to inhibit growth on Ba/F3-KIF5B-RET cell by half (GI50).

Take `C[C@@H](c1ccc(-n2cc(F)cn2)nc1)N(C)c1ccc(-c2cc(N3CCCCC3)cn3ncc(C#N)c23)cn1` [Compound 47, (S)-4-(6-((1-(6-(4-fluoro-1H-pyrazol-1-yl)pyridin-3-yl)ethyl)(methyl)amino)pyridine-3-yl)-6-(piperidin-1-yl)pyrazolo[1,5-a]pyridine-3-carbonitrile]: the IC50 was 5.45 nM at RET and above 5000 nM at VEGFR2. In addition, growth at Ba/F3-KIF5B-RET cell was halved (GI50) at 236 nM.

In the case of `C[C@@H](c1ccc(-n2cc(F)cn2)nc1)N(C)c1ccc(-c2cc(N3CCC(F)(F)CC3)cn3ncc(C#N)c23)cn1` [Compound 48], the IC50 on RET was 4.32 nM; on VEGFR2 it was at least 5440 nM. At Ba/F3-KIF5B-RET cell, this molecule registered a GI50 of 142 nM.

In the case of `C[C@@H](c1ccc(-n2cc(F)cn2)nc1)N(C)c1ccc(-c2cc(NCC3CC3)cn3ncc(C#N)c23)cn1` [Compound 49, (S)-6-((cyclopropylmethyl)amino)-4-(6-((1-(6-(4-fluoro-1H-pyrazol-1-yl)pyridin-3-yl)ethyl)(methyl)amino)pyridin-3-yl)pyrazolo[1,5-a]pyridine-3-carbonitrile], the results for the IC50 on RET and at VEGFR2 were 1.25 nM and above 5000 nM, respectively. The molecule further gave a GI50 on Ba/F3-KIF5B-RET cell of 30.7 nM.

Regarding `CC(C)Nc1cc(-c2ccc(N(C)[C@@H](C)c3ccc(-n4cc(F)cn4)nc3)nc2)c2c(C#N)cnn2c1` [Compound 50, (S)-4-(6-((1-(6-(4-fluoro-1H-pyrazol-1-yl)pyridin-3-yl)ethyl)(methyl)amino)pyridine-3-yl)-6-(isopropylamino)pyrazolo[1,5-a]pyridine-3-carbonitrile], the IC50 at RET stood at 1.67 nM; on VEGFR2 it was 156 nM. Moreover, on Ba/F3-KIF5B-RET cell, the GI50 was 104 nM.

On to `CCNc1cc(-c2ccc(N(C)[C@@H](C)c3ccc(-n4cc(F)cn4)nc3)nc2)c2c(C#N)cnn2c1` [Compound 51, (S)-4-(6-((1-(6-(4-fluoro-1H-pyrazol-1-yl)pyridin-3-yl)ethyl)(methyl)amino)pyridine-3-yl)-6-(ethylamino)pyrazolo[1,5-a]pyridine-3-carbonitrile], for which the IC50 on RET was 0.47 nM; on VEGFR2 it was 4.14 nM. Besides, on Ba/F3-KIF5B-RET cell, it took 5.02 nM to inhibit growth by half (GI50).

Regarding `C#CCOc1cc(-c2ccc(N(C)[C@@H](C)c3ccc(-n4cc(F)cn4)nc3)nc2)c2c(C#N)cnn2c1` [Compound 53, (S)-4-(6-((1-(6-(4-fluoro-1H-pyrazol-1-yl)pyridin-3-yl)ethyl)(methyl)amino)pyridine-3-yl)-6-(prop-2-yn-1-yloxy)pyrazolo[1,5-a]pyridine-3-carbonitrile], the IC50 on RET amounted to 5.52 nM; at VEGFR2, 293 nM. In addition, at Ba/F3-KIF5B-RET cell, halving of growth (GI50) required 432 nM.

With `COCOc1cc(-c2ccc(N(C)[C@@H](C)c3ccc(-n4cc(F)cn4)nc3)nc2)c2c(C#N)cnn2c1` [Compound 55, (S)-4-(6-((1-(6-(4-fluoro-1H-pyrazol-1-yl)pyridin-3-yl)ethyl)(methyl)amino)pyridine-3-yl)-6-(methoxymethoxy)pyrazolo[1,5-a]pyridine-3-carbonitrile], the IC50 on RET is 3.79 nM; at VEGFR2, above 5000 nM. Further, growth on Ba/F3-KIF5B-RET cell was halved (GI50) at 380 nM.

As for `CN(Cc1ccc(-n2cc(F)cn2)nc1)c1ccc(-c2cc(OCC(C)(C)O)cn3ncc(C#N)c23)cn1` [Compound 56, 4-(6-(((6-(4-fluoro-1H-pyrazol-1-yl)pyridin-3-yl)methyl)(methyl)amino)pyridin-3-yl)-6-(2-hydroxy-2-methylpropoxy)pyrazolo[1,5-a]pyridine-3-carbonitrile], the values for the IC50 on RET and at VEGFR2 were 0.68 nM and 30.2 nM, respectively. Besides, the GI50 on Ba/F3-KIF5B-RET cell is 13.9 nM.

Turning to `CCN(Cc1ccc(-n2cc(F)cn2)nc1)c1ccc(-c2cc(OCC(C)(C)O)cn3ncc(C#N)c23)cn1` [Compound 57], the IC50 at RET amounted to 1.3 nM; at VEGFR2, 59.2 nM. In addition, it took 40.7 nM to inhibit growth on Ba/F3-KIF5B-RET cell by half (GI50).
